This is an account of results in publication PMC5814047, “Peptidic inhibitors of insulin-degrading enzyme with potential for dermatological applications discovered via phage display” (PLoS ONE, 2018).

Several values for one entry are separate records, joined by “and”; a condition that tells them apart may be missing. Equal values may be shown once. Ends that are not written are not given here.

For test [1], the target named is T1, IDE (Homo sapiens, UniProt P14735).
T1 construct: made in house; host or cells: bacteria
T1 sequence (P14735 1-1019): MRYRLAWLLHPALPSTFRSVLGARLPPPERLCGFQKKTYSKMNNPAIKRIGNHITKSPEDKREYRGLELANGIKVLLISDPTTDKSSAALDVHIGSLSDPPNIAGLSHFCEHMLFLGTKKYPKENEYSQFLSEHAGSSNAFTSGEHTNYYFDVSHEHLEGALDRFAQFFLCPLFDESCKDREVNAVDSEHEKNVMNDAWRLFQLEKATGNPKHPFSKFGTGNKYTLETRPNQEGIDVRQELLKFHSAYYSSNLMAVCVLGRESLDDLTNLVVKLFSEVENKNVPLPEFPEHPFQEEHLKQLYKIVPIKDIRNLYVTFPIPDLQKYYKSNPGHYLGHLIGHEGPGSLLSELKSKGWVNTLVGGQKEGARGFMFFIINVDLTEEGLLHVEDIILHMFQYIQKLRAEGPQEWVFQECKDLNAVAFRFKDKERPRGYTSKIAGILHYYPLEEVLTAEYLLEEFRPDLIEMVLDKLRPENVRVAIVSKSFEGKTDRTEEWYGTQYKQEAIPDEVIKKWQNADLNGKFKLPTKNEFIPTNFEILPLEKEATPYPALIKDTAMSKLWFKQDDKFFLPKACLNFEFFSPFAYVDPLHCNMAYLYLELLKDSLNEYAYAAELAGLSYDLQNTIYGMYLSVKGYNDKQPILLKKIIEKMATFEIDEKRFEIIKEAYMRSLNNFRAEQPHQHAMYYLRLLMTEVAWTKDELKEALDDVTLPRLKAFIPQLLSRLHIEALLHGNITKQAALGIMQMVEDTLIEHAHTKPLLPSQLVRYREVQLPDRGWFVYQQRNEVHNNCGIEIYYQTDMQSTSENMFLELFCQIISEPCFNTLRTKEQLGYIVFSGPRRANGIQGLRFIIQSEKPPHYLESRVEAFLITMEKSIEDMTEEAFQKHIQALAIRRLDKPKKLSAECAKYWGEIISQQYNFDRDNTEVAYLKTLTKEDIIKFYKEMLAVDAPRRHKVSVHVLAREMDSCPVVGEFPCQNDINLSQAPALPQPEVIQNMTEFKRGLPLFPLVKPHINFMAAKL
Nature of the test: biochemical. The conditions noted are these: for IC50: from initial test at 10 uM using insulin (100 nM), read-out: IC50 (summary of results, listed in Table 1); for Ki: substrate recombinant human insulin 50 nM, Ki from IC50 with the Cheng-Prusoff equation. The source says: The six selected peptide sequences (C7C-1, C7C-2, 12–1, 12–2, 12–3 and 12–4) were synthesized, together with a variety of modifications, yielding a total of 25 peptides (Table 1). For the 12-mer peptides, we synthesized variants of the parent peptides truncated at one or both termini, to test whether the entire sequence was necessary or not, in the hope that shorter, and thus less expensive, sequences might be effective. Other modifications included N-terminal acetylation and C-terminal amidation, included to mimic the charge state of the peptides when incorporated in the phage coat protein (Table 1). To assess the extent to which these peptide sequences inhibit IDE, we quantified their potency in protease activity assays using recombinant human IDE and two different substrates: FRET1, a fluorogenic peptide, and recombinant human insulin.
(§1) IDE activity was quantified by monitoring the degradation of Mca-[…](Dnp) (FRET1, 5 μM), fluoresceinated and biotinylated amyloid ß-protein (FAßB; 500 nM) or recombinant human insulin (50 nM) in PBS supplemented with 0.05% BSA. FRET1 degradation was measured by changes in fluorescence (λex = 340 nm, λem = 420 nm); FAßB degradation was monitored by fluorescence polarization (λex = 488 nm, λem = 525 nm), as described; and insulin degradation was quantified by ELISA. In vitro activity assays incorporated recombinant human IDE (1 nM) purified from bacteria. For quantitation of insulin degradation in primary murine skin fibroblasts, cells (1 x 10^5/well) were plated in 96-well plates and maintained in DMEM supplemented with 10% fetal bovine serum (FBS), 2mM glutamine, penicillin and streptomycin. After addition of insulin (10 nM or 100 nM), samples of conditioned medium were removed daily and quickly frozen, then insulin levels were quantified in parallel by ELISA according to manufacturer’s recommendations (Crystal Chem, Downers Grove, IL, USA). Assessment of the activity of P12-3A against a variety of matrix-metalloproteases was conducted using the Matrix Metalloproteinase (MMP) Inhibitor Profiling Kit, Fluorometric RED (Enzo Life Sciences, Inc., Farmingdale, NY, USA) according to manufacturer’s recommendations using the broad-spectrum MMP inhibitor, NNGH, as a positive control.

Test [2] has as its target T1, IDE. Nature of the test: Vulnerability of peptides to degradation by IDE: 0 vs 4 h pre-incubation, then FRET1 assay. The format is biochemical. The conditions noted are these: for Ki: Cheng-Prusoff from IC50, FRET1 KM 10 uM, substrate 5 uM; for remaining activity at 0.12207 µM / remaining activity at 0.488281 µM / remaining activity at 1.95312 µM / remaining activity at 7.8125 µM / remaining activity at 31.25 µM / remaining activity at 125 µM / remaining activity at 500 µM: 4 h, relative to DMSO-only controls, read-out: Percent Activity (normalized initial velocity of FRET1 hydrolysis); for remaining activity at 0.12207 µM: Cmpd 0.12207 uM; for remaining activity at 0.488281 µM: Cmpd 0.488281 uM; for remaining activity at 1.95312 µM: Cmpd 1.95312 uM; for remaining activity at 7.8125 µM: Cmpd 7.8125 uM; for remaining activity at 31.25 µM: Cmpd 31.25 uM; for remaining activity at 125 µM: Cmpd 125 uM; for remaining activity at 500 µM: Cmpd 500 uM; for IC50: FRET1 assay. How it is done:
as §1, with “FRET1 degradation was measured by changes in fluorescence (λex = 340 nm, λem = 420 nm); FAßB degradation was monitored by fluorescence polarization (λex = 488 nm, λem = 525 nm), as described; and insulin degradation was quantified by ELISA.” left out

In test [3] the target is T1, IDE. Nature of the test: biochemical. Particulars: for IC50: FRET1; for IC50 <500 uM?: initial test at 500 uM; for remaining activity at 500 µM: individual replicates, read-out: Percent activity at 500 uM, Replicate 1-4; for Ki: substrate FRET1 5 μM, Ki from IC50 with the Cheng-Prusoff equation, read-out: Ki FRET1. How it is done:
The six selected peptide sequences (C7C-1, C7C-2, 12–1, 12–2, 12–3 and 12–4) were synthesized, together with a variety of modifications, yielding a total of 25 peptides (Table 1). […] Other modifications included N-terminal acetylation and C-terminal amidation, included to mimic the charge state of the peptides when incorporated in the phage coat protein (Table 1).
as §1, with “FRET1 degradation was measured by changes in fluorescence (λex = 340 nm, λem = 420 nm); FAßB degradation was monitored by fluorescence polarization (λex = 488 nm, λem = 525 nm), as described; and insulin degradation was quantified by ELISA.” left out

Setting [4] is: 4-hr incubation, individual runs.
Where [5] appears, read: 0-hr incubation (immediately after combining enzyme and peptide), individual runs, read-out: IC50s.
[6] abbreviates: 4-hr incubation, individual replicates, read-out: IC50s.
[7] abbreviates: 4-hr incubation, mean of 2 replicates, read-out: IC50s, Mean.
[8] abbreviates: dose-response, read-out: IC50s, Mean.
[9] abbreviates: initial test, percent of initial velocity relative to DMSO-only controls.

Consider `CC(=O)N[C@@H](Cc1c[nH]c2ccccc12)C(=O)N[C@@H](CC(=O)O)C(=O)N[C@@H](Cc1ccccc1)C(=O)N[C@@H](CCCNC(=N)N)C(=O)N[C@@H](CCC(N)=O)C(=O)N[C@@H](Cc1c[nH]c2ccccc12)C(=O)N[C@@H](Cc1c[nH]c2ccccc12)C(=O)N[C@@H](CCC(N)=O)C(N)=O` [P12-1D], for which, in test [1], the IC50 is greater than 10 µM and the Ki (commonly a dissociation constant, usually derived from enzyme kinetics or from competition with a known ligand) is greater than 10 µM. In addition, the Ki in test [2] (4-hr incubation) is 515 µM. For the same compound, in test [2] (setting [4]), the remaining activity at 0.12207 µM was determined as 102%, the remaining activity at 0.488281 µM stood at 91.2%, the remaining activity at 1.95312 µM was 99.3% and the remaining activity at 7.8125 µM turned out to be 97.1%. In test [2] (setting [4]), the remaining activity at 31.25 µM is 90.2%, the remaining activity at 125 µM amounted to 47.6% and the remaining activity at 500 µM amounted to 20.6%. For the same compound, the IC50 in test [2] (setting [5]) is 138 µM and 282 µM. Besides, the IC50 in test [2] (setting [6]) is 791 µM and 755 µM. Also, the IC50 in test [2] (setting [7]) turned out to be 773 µM. For the same compound, the IC50 in test [3] (setting [8]) was determined as 210 µM. Besides, in test [3], the “IC50 <500 uM?” value is reported as “YES” and the inhibition constant (Ki) is greater than 100 µM. In addition, the remaining activity at 500 µM in test [3] (setting [9]) was 13.4%. For the same compound, in test [3] (judged as IC50 <100 uM?), the remaining activity at 500 µM was 61.2%.
As to Ac-FRQWWQPS [P12-1C], the IC50 in test [1] was greater than 10 µM; in test [2] (setting [5]) it was 150 µM and 254 µM and 220 µM; in test [2] (setting [6]) it was 482 µM and 500 µM; in test [2] (setting [7]), 491 µM; in test [3] (setting [8]), 208 µM. Further, the Ki is greater than 10 µM in test [1], 139 µM in test [2] (0-hr incubation), 327 µM in test [2] (4-hr incubation) and 139 ± 21 µM in test [3]. The remaining activity at 0.12207 µM in test [2] (setting [4]) came out at 100%. Besides, in test [2] (setting [4]), the remaining activity at 0.488281 µM turned out to be 104%. For the same compound, the remaining activity at 1.95312 µM in test [2] (setting [4]) was determined as 105%. Moreover, the remaining activity at 7.8125 µM in test [2] (setting [4]) is 104%. In addition, in test [2] (setting [4]), the remaining activity at 31.25 µM amounted to 78.2%. In test [2] (setting [4]), the remaining activity at 125 µM was 24.3%. Moreover, the remaining activity at 500 µM in test [2] (setting [4]) was determined as 2.79%; in test [3] (setting [9]), 12.6%; in test [3] (judged as IC50 <100 uM?), 33.8%. For the same compound, the “IC50 <500 uM?” value in test [3] is recorded as “YES”.
For the compound WSPISGKF-NH2 [P12-4B], the IC50 in test [1] was greater than 10 µM; in test [3] (listed in Table 1, read-out: IC50, summary of results of the initial test) it was greater than 500 µM. The Ki in test [1] is no less than 10 µM; in test [3], no less than 500 µM. For the same compound, the remaining activity at 500 µM in test [3] (setting [9]) is 76.6%; in test [3] (judged as IC50 <100 uM?), 86.6%.
